Here are results for 18 compounds from PubChem BioAssay AID192 (DTP/NCI, 2004).

The experiment has as its system BDF1 mice, B16 melanoma ip, median survival T/C. Briefly: NCI In Vivo Anticancer Drug Screen. Data for tumor model B16 Melanoma (intraperitoneal) in B6D2F1 (BDF1) mice. Particulars: endpoint: median survival time, higher = longer survival. In a few lines: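 Survival or tumor size is measured after treatment of tumor-bearing mice and normalised to the vehicle-treated control group.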

Where [1] appears, read: dose: 40.0 mg/kg/injection, schedule: Q01DX009 (ip), vehicle: saline with Tween-80.
Setting [2] is: dose: 50.0 mg/kg/injection, schedule: Q01DX009 (ip), vehicle: Klucel (hydroxypropylcellulose) (HPC).
The mark [3] stands for this setting: dose: 1.0 mg/kg/injection, schedule: Q01DX009 (ip), vehicle: saline.
Setting [4] is: dose: 2.0 mg/kg/injection, schedule: Q01DX009 (ip), vehicle: saline.
Where [5] appears, read: dose: 4.0 mg/kg/injection, schedule: Q01DX009 (ip), vehicle: saline.
The mark [6] stands for this setting: dose: 25.0 mg/kg/injection, schedule: Q01DX009 (ip), vehicle: saline with Tween-80.
The mark [7] stands for this setting: dose: 6.25 mg/kg/injection, schedule: Q01DX009 (ip), vehicle: Klucel (hydroxypropylcellulose) (HPC).
Where [8] appears, read: dose: 12.5 mg/kg/injection, schedule: Q01DX009 (ip), vehicle: Klucel (hydroxypropylcellulose) (HPC).
Setting [9] is: dose: 25.0 mg/kg/injection, schedule: Q01DX009 (ip), vehicle: Klucel (hydroxypropylcellulose) (HPC).
Where [10] appears, read: dose: 50.0 mg/kg/injection, schedule: Q01DX009 (ip), vehicle: saline with Tween-80.
The mark [11] stands for this setting: dose: 100.0 mg/kg/injection, schedule: Q01DX009 (ip), vehicle: saline with Tween-80.
The mark [12] stands for this setting: dose: 100.0 mg/kg/injection, schedule: Q01DX009 (ip), vehicle: Klucel (hydroxypropylcellulose) (HPC).
[13] abbreviates: dose: 200.0 mg/kg/injection, schedule: Q01DX009 (ip), vehicle: Klucel (hydroxypropylcellulose) (HPC).
The mark [14] stands for this setting: dose: 25.0 mg/kg/injection, schedule: Q01DX009 (ip), vehicle: saline.
The mark [15] stands for this setting: dose: 50.0 mg/kg/injection, schedule: Q01DX009 (ip), vehicle: saline.

Molecules are shown by their SMILES. Values joined by “and” are separate entries in the source; they are usually repeats but may differ in a detail not shown here. Identical values can stand only once. Toxic doses and inconclusive results are not listed.

With `COc1cc([NH-])c([NH-])cc1OC.[Cl][Pt+2][Cl]`, the T/C runs as follows: (dose: 10.0 mg/kg/injection, schedule: Q01DX009 (ip), vehicle: saline with Tween-80) 97 % of control; (dose: 20.0 mg/kg/injection, schedule: Q01DX009 (ip), vehicle: saline with Tween-80) 104 % of control; under setting [1], 103 % of control; (dose: 80.0 mg/kg/injection, schedule: Q01DX009 (ip), vehicle: saline with Tween-80) 104 % of control; (dose: 160.0 mg/kg/injection, schedule: Q01DX009 (ip), vehicle: saline with Tween-80) 94 % of control.
As to `C/C=C1/C[C@@H](C)[C@@](C)(O)C(=O)OCC2=CCN3CC[C@@H](OC1=O)[C@@H]23`, the T/C (dose: 10.0 mg/kg/injection, schedule: Q01DX009 (ip), vehicle: saline) was 110 % of control; the T/C (dose: 11.3 mg/kg/injection, schedule: Q01DX009 (ip), vehicle: saline) is 111 % of control; the T/C (dose: 20.0 mg/kg/injection, schedule: Q01DX009 (ip), vehicle: saline) was 113 % of control; the T/C (dose: 22.5 mg/kg/injection, schedule: Q01DX009 (ip), vehicle: saline) is 285 % of control; the T/C (dose: 40.0 mg/kg/injection, schedule: Q01DX009 (ip), vehicle: saline) is 108 % of control; the T/C (dose: 45.0 mg/kg/injection, schedule: Q01DX009 (ip), vehicle: saline) was 102 % of control. Further, the T/C (dose: 80.0 mg/kg/injection, schedule: Q01DX009 (ip), vehicle: saline) was 108 % of control and the T/C (dose: 90.0 mg/kg/injection, schedule: Q01DX009 (ip), vehicle: saline) was 88 % of control.
As to `CC(=O)Nc1nc(=O)n(CC(=O)c2cccs2)cc1F`, the T/C is 100 % of control (dose: 6.25 mg/kg/injection, schedule: Q01DX009 (ip), vehicle: carboxymethylcellulose (CMC)); 99 % of control (dose: 12.5 mg/kg/injection, schedule: Q01DX009 (ip), vehicle: carboxymethylcellulose (CMC)); 94 % of control (dose: 25.0 mg/kg/injection, schedule: Q01DX009 (ip), vehicle: carboxymethylcellulose (CMC)); 96 % of control under setting [2]; 102 % of control (dose: 50.0 mg/kg/injection, schedule: Q01DX009 (ip), vehicle: carboxymethylcellulose (CMC)).
Regarding `NC(Cc1cc(I)c(Oc2cc(I)c(O)c(I)c2)c(I)c1)C(=O)O` (centres undefined), the T/C by setting is: under setting [3], 93 % of control; under setting [4], 101 % of control; under setting [5], 92 % of control; (dose: 16.0 mg/kg/injection, schedule: Q01DX009 (ip), vehicle: saline) 101 % of control.
As to `CC(=O)Oc1ccc(Nc2c3ccccc3nc3ccccc23)cc1`, the T/C (dose: 1.87 mg/kg/injection, schedule: Q01DX009 (ip), vehicle: saline with Tween-80) was 110 % of control; the T/C (dose: 3.75 mg/kg/injection, schedule: Q01DX009 (ip), vehicle: saline with Tween-80) was 114 % of control; the T/C (dose: 7.5 mg/kg/injection, schedule: Q01DX009 (ip), vehicle: saline with Tween-80) is 121 % of control; the T/C (dose: 29.3 mg/kg/injection, schedule: Q01DX009 (ip), vehicle: saline with Tween-80) is 197 % of control; the T/C (dose: 30.0 mg/kg/injection, schedule: Q01DX009 (ip), vehicle: saline with Tween-80) was 156 % of control and 158 % of control; the T/C under setting [1] is 150 % of control.
Turning to `CC(=O)OC1CCC2(C)C(CCC3C2C(=O)C(OC(C)=O)C2(C)C3CC3OC4(CCC(C)CO4)C(C)C32)C1` (centres undefined), the T/C is 98 % of control (dose: 1.56 mg/kg/injection, schedule: Q01DX009 (ip), vehicle: saline with Tween-80); 108 % of control (dose: 3.13 mg/kg/injection, schedule: Q01DX009 (ip), vehicle: saline with Tween-80); 91 % of control and 93 % of control (dose: 6.25 mg/kg/injection, schedule: Q01DX009 (ip), vehicle: saline with Tween-80); 89 % of control under setting [6].
As to `COc1ccc2nc3cc(Cl)ccc3c(NC(C)CCCN(CCCl)CCCl)c2c1` (centres undefined), the T/C is, setting by setting: (dose: 0.12 mg/kg/injection, schedule: Q01DX009 (ip), vehicle: saline) 114 % of control; (dose: 0.25 mg/kg/injection, schedule: Q01DX009 (ip), vehicle: saline) 105 % of control; (dose: 0.5 mg/kg/injection, schedule: Q01DX009 (ip), vehicle: saline) 105 % of control; (dose: 0.62 mg/kg/injection, schedule: Q04DX003 (ip), vehicle: saline with Tween-80) 110 % of control; (dose: 1.25 mg/kg/injection, schedule: Q04DX003 (ip), vehicle: saline with Tween-80) 110 % of control.
For the compound `O=c1oc(-c2ccc(Cl)cc2)nc2cc(Cl)ccc12`, the T/C was 99 % of control under setting [7]; 93 % of control under setting [8]; 105 % of control and 106 % of control under setting [9].
In the case of `CCOC(=O)C(C(=O)COC)C(=O)OCC`, the T/C (dose: 25.0 mg/kg/injection, schedule: Q01DX009 (ip), vehicle: water) is 102 % of control; the T/C (dose: 50.0 mg/kg/injection, schedule: Q01DX009 (ip), vehicle: water) was 98 % of control; the T/C (dose: 100.0 mg/kg/injection, schedule: Q01DX009 (ip), vehicle: water) is 93 % of control.
For the compound `CS(=O)(=O)OCCN(CCOS(C)(=O)=O)c1ccc(C=Nc2ccc(-c3csc(Cc4ccccc4)n3)cc2)c(Cl)c1`, the T/C is 107 % of control and 110 % of control under setting [7]; 120 % of control under setting [8]; 153 % of control under setting [2].
With `CC1CN1P(=S)(Oc1ccccc1)N1CC1C` (centres undefined), the T/C was 97 % of control under setting [6]; 95 % of control under setting [10]; 93 % of control and 97 % of control under setting [11]; 100 % of control (dose: 400.0 mg/kg/injection, schedule: Q01DX009 (ip), vehicle: saline with Tween-80).
For `CC(C)OC(=O)Nc1ccc(-c2ccc(NC(=O)OC(C)C)cc2)cc1`, the T/C is, setting by setting: under setting [12], 109 % of control; (dose: 100.0 mg/kg/injection, schedule: Q04DX003 (ip), vehicle: Klucel (hydroxypropylcellulose) (HPC)) 109 % of control; under setting [13], 118 % of control; (dose: 200.0 mg/kg/injection, schedule: Q04DX003 (ip), vehicle: Klucel (hydroxypropylcellulose) (HPC)) 90 % of control; (dose: 400.0 mg/kg/injection, schedule: Q01DX009 (ip), vehicle: Klucel (hydroxypropylcellulose) (HPC)) 109 % of control; (dose: 400.0 mg/kg/injection, schedule: Q04DX003 (ip), vehicle: Klucel (hydroxypropylcellulose) (HPC)) 92 % of control.
As to `CCC(C)C(C(=O)OC1CCN(C)CC1)c1ccccc1` (centres undefined), the T/C runs as follows: under setting [14], 101 % of control; under setting [15], 90 % of control.
Regarding `CC[C@](O)(C(=O)O)c1cc2n(c(=O)c1CO)Cc1cc3ccccc3nc1-2`, the T/C was 117 % of control (dose: 0.79 mg/kg/injection, schedule: Q01DX009 (ip), vehicle: other); 115 % of control and 121 % of control under setting [3]; 117 % of control under setting [4]; 150 % of control under setting [5].
As for `c1ccc([As+](c2ccccc2)(c2ccccc2)c2ccccc2)cc1`, the T/C is, setting by setting: (dose: 1.87 mg/kg/injection, schedule: Q01DX009 (ip), vehicle: Klucel (hydroxypropylcellulose) (HPC)) 122 % of control; (dose: 3.75 mg/kg/injection, schedule: Q01DX009 (ip), vehicle: Klucel (hydroxypropylcellulose) (HPC)) 110 % of control.
For the compound `C=CCc1ccccc1OC`, the T/C by setting is: under setting [14], 116 % of control; under setting [15], 109 % of control; (dose: 100.0 mg/kg/injection, schedule: Q01DX009 (ip), vehicle: saline) 106 % of control.
Regarding `C[C@@H]1C(=O)C[C@H]2C(C)(C)CCC[C@]2(C)[C@@]1(O)CCc1ccoc1`, the T/C is, setting by setting: under setting [9], 99 % of control; under setting [2], 89 % of control; under setting [12], 93 % of control; under setting [13], 86 % of control.
`CC(=O)NC(Cc1cc(I)c(OC(C)=O)c(I)c1)C(=O)O` (centres undefined): the T/C runs as follows: under setting [10], 100 % of control; under setting [11], 97 % of control; (dose: 200.0 mg/kg/injection, schedule: Q01DX009 (ip), vehicle: saline with Tween-80) 90 % of control.
